Measured values reported in US4997926A, “Deaminase-stable anti-retroviral 2-halo-2',3'-dideoxy” (Scripps Clinic and Research Foundation, priority 1987, dated 1991).

Key:
uninfected ATH8 cells = conditions: normal, read-out: Dose required to reduce the viability by 50 percent; cited from earlier work
[1] = tested on: deoxycytidine kinase and adenosine kinase deficient CEM T cells (clone AraC-8DM10-5); assay type: in vitro ADME, human; conditions: 3 uM, 4 hours
Procedure: ^1 Human CEM T cells, or variants deficient in either deoxycytidine
kinase, or deoxycytidine kinase plus adenosine kinase, were incubated at
density of 5 × 10^7 cells/ml in medium containing 3 uM [8^3
H2-chloro-2',3dideoxyadenosine. After 4 hours, the nucleotides in the
methanolsoluble extracts were determined after separation by HPLC, as
described in the Materials and Methods.
The human T lymphoblastoid cell line, CCRF-CEM, and mutants deficient in either deoxycytidine kinase (clone AraC-8D), or deoxycytidine kinase plus adenosine kinase (clone AraC-8DM10-5) were obtained and propagated as described previously [Foley et al., (1965) Cancer, 18:552-529 and Hershfield et al., (1982) J. Biol. Chem., 257:6380-6386]. For metabolic studies, the cells were cultured in RPMI 1640 medium supplemented with 2 mM L-glutamine and 10 percent fetal bovine serum at a density of 2×10^7 cells/ml in the presence of radiolabelled dideoxynucleosides, as indicated earlier. Some cultures were pre-incubatedfor 30 minutes either with 5 uM 2'-deoxycoformycin or 50 uM coformycin. After 4 hours of incubation the cells were harvested by centrifugation.
The cell pellets were washed with Hank's balanced salt solution at 4 degrees C., and extracted with 1 ml 60 percent methanol/water at -20 degrees C. for 10 minutes. Initial studies included 2',3'-dideoxyadenosine5'-triphosphate as an internal recovery marker. The nucleotides were fractionated by high performance liquid chromatography on an Whatman Partisil-10 SAX column, applying a gradient of zero to 100 percent buffer B in buffer A. Buffer A was 7 mM potassium phosphate pH 3.4. Buffer B was 0.5 M potassium phosphate, pH 3.4, one M KCl. The flow rate was 1.5 ml/minute, 1 minute fractions were collected. Buffer A was used alone for the first ten fractions after which elution with Buffer B began and was continued through fraction thirty, after which the eluting buffer was completely Buffer B. The nucleoside was eluted by about fraction six. The monophosphate eluted between about fractions fifteen and eighteen, the diphosphate between about fractions twenty-seven and thirty-two, and the triphosphate eluted between about fractions fifty-one and about sixty-five.

Compound: Nc1ncnc2c1ncn2[C@H]1CC[C@@H](CO)O1 [2',3'-dideoxyadenosine, reference compound]
- CC50 (uninfected ATH8 cells): > 500 µM

Compound: Nc1nc(Cl)nc2c1ncn2[C@H]1CC[C@@H](CO)O1 [2-chloro-2',3'-dideoxyadenosine]
- Nucleotide Formed, Diphosphate [1]: 0.7 pmols/10^8 cells/4 hrs
- Nucleotide Formed, Monophosphate [1]: 0.9 pmols/10^8 cells/4 hrs
- Nucleotide Formed, Triphosphate [1]: 2.5 pmols/10^8 cells/4 hrs
